Patent US9751842B2, “Phthalazine derivatives” (Merck Patent GmbH, priority 2013, dated 2017)

Assays:
[1] = target: T1, GST-tagged Tnks-1 (1023-1327 aa) (Homo sapiens, UniProt O95271); experiment: TNKS1 activity ELISA (autoparsylation); assay type: biochemical; conditions: activity ELISA, 1 hour at 30° C; read-out: IC50 TNKS1 ELISA
T1 construct: GST-tagged Tnks-1 (1023-1327 aa, prepared in-house); made in house
Method: (§1) Description of the TNKS1 and TNKS2 ELISA Assay
(§2) Biochemical Activity Testing of TNKS 1 and 2: Activity ELISA (Autoparsylation Assay)
(§3) For analysis of autoparsylation activity of TNKS 1 and 2 an activity ELISA is performed: In the first step GST tagged TNKS is captured on a Glutathione coated plate. Then the activity assay with biotinylated NAD is performed in the absence/presence of the compounds. During the enzymatic reaction GST tagged TNKS transfers biotinylated ADP-ribose to itself from biotinylated NAD as co-substrate. For the detection streptavidin-HRP conjugate is added that binds to the biotinylated TNKS and is thereby captured to the plates. The amount of biotinylated resp. autoparsylated TNKS is detected with a luminescence substrate for HRP. The level of the luminescence signal correlates directly with the amount of autoparsylated TNKS and therefore with activity of TNKS.
(§4) The activity ELISA is performed in 384 well Glutathione coated microtiter plates (Express capture Glutathione coated plate, Biocat, Heidelberg, Germany). The plates are pre-equilibrated with PBS. Then the plates are incubated with 50 μl 20 ng/well GST-tagged Tnks-1 (1023-1327 aa, prepared in-house), respectively GST-tagged Tnks-2 (873-1166 aa, prepared in-house) in assay buffer (50 mM HEPES, 4 mM Mg-chloride, 0.05% Pluronic F-68, 2 mM DTT, pH 7.7) overnight at 4° C. The plates are washed 3 times with PBS-Tween-20. The wells are blocked by incubation at room temperature for 20 minutes with 50 μl blocking buffer (PBS, 0.05% Tween-20, 0.5% BSA). Afterwards the plates are washed 3 times with PBS-Tween-20. The enzymatic reaction is performed in 50 μl reaction solution (50 mM HEPES, 4 mM Mg-chloride, 0.05% Pluronic F-68, 1.4 mM DTT, 0.5% DMSO, pH 7.7) with 10 μM bio-NAD (Biolog, Life science Inst., Bremen, Germany) as co-substrate in the absence or presence of the test compound (10 dilution concentrations) for 1 hour at 30° C. The reaction is stopped by 3 times washing with PBS-Tween-20. For the detection 50 μl of 20 ng/μl Streptavidin, HRP conjugate (MoBiTec, Göttingen, Germany) in PBS/0.05% Tween-20/0.01% BSA are added and the plates are incubated for 30 minutes at room temperature. After three times washing with PBS-Tween-20 50 μl of SuperSignal ELISA Femto Maximum sensitivity substrate solution (ThermoFisherScientific (Pierce), Bonn, Germany) are added. Following a 1 minute incubation at room temperature luminescence signals are measured with an Envision multimode reader (Perkin Elmer LAS Germany GmbH) at 700 nm. The full value used is the inhibitor-free reaction. The pharmacological zero value used is XAV-939 (Tocris) in a final concentration of 5 μM. The inhibitory values (IC50) are determined using either the program Symyx Assay Explorer® or Condosseo® from GeneData.

[2] = target: T2, GST-tagged Tankyrase-2 (873-1166 aa) (Homo sapiens, UniProt Q9H2K2); experiment: Tankyrase 2 autoparsylation HTRF enzyme assay; assay type: biochemical; conditions: HTRF autoparsylation, 90 min at 30° C; read-out: IC50 TNKS2 enzyme assay
T2 construct: GST-tagged Tankyrase-2 (873-1166 aa)
T2 sequence (Q9H2K2 873-1166): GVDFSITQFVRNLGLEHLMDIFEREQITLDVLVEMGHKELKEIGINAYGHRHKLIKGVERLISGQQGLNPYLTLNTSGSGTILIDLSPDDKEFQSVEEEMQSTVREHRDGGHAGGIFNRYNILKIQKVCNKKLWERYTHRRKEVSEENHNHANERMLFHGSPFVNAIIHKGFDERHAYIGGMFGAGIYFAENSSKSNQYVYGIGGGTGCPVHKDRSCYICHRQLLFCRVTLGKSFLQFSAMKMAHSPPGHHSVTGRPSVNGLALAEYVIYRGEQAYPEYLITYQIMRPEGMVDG
Method: (§5) Biochemical Activity Testing of Tankyrase 1 and 2: Autoparsylation Assay
(§6) The autoparsylation assay is run in two steps: the enzymatic reaction in which GST-tagged Tankyrase-1, resp Tankyrase-2 transferred biotinylated ADP-ribose to itself from biotinylated NAD as co-substrate and the detection reaction where a time resolved FRET between cryptate labelled anti-GST bound to the GST tag of the enzyme and Xlent® labelled-streptavidin bound the biotin-parsylation residue is analysed. The autoparsylation activity was detectable directly via the increase in HTRF signal.
(§7) The autoparsylation assay is performed as 384-well HTRF® (Cisbio, Codolet, France) assay format in Greiner low volume nb 384-well microtiter plates and is used for high throughput screen. 250 nM GST-tagged Tankyrase-1 (1023-1327 aa), respectively about 250 nM GST-tagged Tankyrase-2 (873-1166 aa) and 5 μM bio-NAD (Biolog, Life science Inst., Bremen, Germany) as co-substrate are incubated in a total volume of 5 μl (50 mM HEPES, 4 mM Mg-chloride, 0.05% Pluronic F-68, 1.4 mM DTT, 0.5% DMSO, pH 7.7) in the absence or presence of the test compound (10 dilution concentrations) for 90 min at 30° C. The reaction is stopped by the addition of 1 μl 50 mM EDTA solution. 2 μl of the detection solution (1.6 μM SA-Xlent® (Cisbio, Codolet, France), 7.4 nM Anti-GST-K® (Eu-labelled anti-GST, Cisbio, Codolet, France) in 50 mM HEPES, 800 mM KF, 0.1° A. BSA, 20 mM EDTA, 0.1% CHAPS, pH 7.0) are added. After 1 h incubation at room temperature the HTRF is measured with an Envision multimode reader (Perkin Elmer LAS Germany GmbH) at excitation wavelength 340 nm (laser mode) and emission wavelengths 615 nm and 665 nm. The ratio of the emission signals is determined. The full value used is the inhibitor-free reaction. The pharmacological zero value used is XAV-939 (Tocris) in a final concentration of 5 μM. The inhibitory values (IC50) are determined using either the program Symyx Assay Explorer® or Condosseo® from GeneData.

[3] = target: T3, GST-tagged Tnks-2 (873-1166 aa) (Homo sapiens, UniProt Q9H2K2); experiment: TNKS2 activity ELISA (autoparsylation); assay type: biochemical; conditions: activity ELISA, 1 hour at 30° C; read-out: IC50 TNKS2 ELISA
T3 construct: GST-tagged Tnks-2 (873-1166 aa, prepared in-house); made in house
T3 sequence (Q9H2K2 873-1166): as above
Method: as §1, §2, §3, §4

[4] = tested on: Tankyrase (Axin2 level in DLD1 cells); experiment: Cellular inhibition of Tankyrase, Axin2 Luminex assay in DLD1 cells; assay type: cell-based; conditions: Homo sapiens, DLD-1, 24 hours, Axin2 level increase, read-out: IC50 Cell assay
Method: Measurement of Cellular Inhibition of Tankyrase
Since Tankyrases have been described to modulate cellular level of Axin2 (Huang et al., 2009; Nature) the increase of Axin2 level is used as read-out for determination of cellular inhibition of Tankyrases in a Luminex based assay.
Cells of the colon carcinoma cell line DLD1 are plated in 96 well plates with 1.5×10^4 cells per well. Next day, cells are treated with a serial dilution of test compound in seven steps as triplicates with a final DMSO concentration of 0.3%. After 24 hours, cells are lysed in lysis buffer (20 mM Tris/HCl pH 8.0, 150 mM NaCl, 1% NP40, 10% Glycerol) and lysates are cleared by centrifugation through a 96 well filter plate (0.65 μm). Axin2 protein is isolated from cell lysates by incubation with a monoclonal anti-Axin2 antibody (R&D Systems #MAB6078) that is bound to fluorescent carboxybeads. Then, bound Axin2 is specifically detected with a polyclonal anti-Axin2 antibody (Cell Signaling #2151) and an appropriate PE-fluorescent secondary antibody. The amount of isolated Axin2 protein is determined in a Luminex^200 machine (Luminex Corporation) according to the manufacturer's instruction by counting 100 events per well. Inhibition of Tankyrase by test compounds results in higher levels of Axin2 which directly correlates with an increase of detectable fluorescence. As controls cells are treated with solvent alone (neutral control) and with a Tankyrase reference inhibitor IWR-2 (3E-06 M) which refers as control for maximum increase of Axin2. For analysis, the obtained data are normalized against the untreated solvent control and fitted for determination of the EC50 values using the Assay Explorer software (Accelrys).

[5] = target: T4, GST-tagged Tankyrase-1 (1023-1327 aa) (Homo sapiens, UniProt O95271); experiment: Tankyrase 1 autoparsylation HTRF enzyme assay; assay type: biochemical; conditions: HTRF autoparsylation, 90 min at 30° C; read-out: IC50 TNKS1 enzyme assay
T4 construct: GST-tagged Tankyrase-1 (1023-1327 aa)
T4 sequence (O95271 1023-1327): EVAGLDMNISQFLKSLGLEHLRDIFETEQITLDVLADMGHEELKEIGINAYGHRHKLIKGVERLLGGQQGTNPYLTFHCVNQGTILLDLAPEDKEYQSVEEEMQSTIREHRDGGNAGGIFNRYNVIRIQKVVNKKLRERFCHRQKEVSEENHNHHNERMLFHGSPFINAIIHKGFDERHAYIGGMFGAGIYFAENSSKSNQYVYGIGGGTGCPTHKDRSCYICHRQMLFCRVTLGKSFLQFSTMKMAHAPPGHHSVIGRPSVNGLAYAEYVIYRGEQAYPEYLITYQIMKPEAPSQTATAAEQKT
Method: as §5, §6, §7

[6] = tested on: β-catenin; conditions: Huang et al., 2009, Nature; by increasing AXIN1 and AXIN2 levels; cited from earlier work
[7] = tested on: DLD-1-cancer cells; conditions: Huang et al., 2009, Nature; cited from earlier work

T1 sequence (O95271 1023-1327): as above

| Structure (SMILES) | IC50 [1] [nM] | IC50 [2] [nM] | IC50 [3] [nM] | IC50 [4] [nM] | IC50 [5] [nM] | Wnt-stimulated accumulation of β-catenin [6] | growth of DLD-1-cancer cells [7] |
| --- | --- | --- | --- | --- | --- | --- | --- |
| O=C(CCc1cccc(Cl)c1Cl)Nc1nncc2ccccc12 [Compound A17, 3-(2,3-dichloro-phenyl)-N-phthalazin-1-yl-propionamide] | < 300 | 300 to 3000 | < 300 | 3000 to 50000 | < 300 | – | – |
| Oc1nc(-c2ccc(C(F)(F)F)cc2)nc2c1CSCC2 [XAV939] | – | – | – | – | – | blocked | inhibits growth |
